Data: article PMC7577153, “Identification of Small-Molecule Inhibitors Targeting Porphyromonas gingivalis Interspecies Adherence and Determination of Their In Vitro and In Vivo Efficacies” (Antimicrobial Agents and Chemotherapy, 2020)
Marks after values point to notes of the source that are not given here.

Experiments:
[1] = test system: TIGK cells; details: positive control, 2 mM hydrogen peroxide, 4 h;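 note: flow cytometry of cells stained with PE annexin V plus Sytox green, with untreated or 0.1% DMSO-exposed cells as negative controls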
Procedure: (§1) The mouse macrophage cell line J774A.1 was grown in Dulbecco’s modified Eagle medium (DMEM) (Thermo Fisher Scientific, Waltham, MA) supplemented with 4.5 g/ml glucose, 10% fetal bovine serum (FBS), and 100 U/ml penicillin-streptomycin (Sigma-Aldrich, St. Louis, MO). HL60 (ATCC CCL240) cells were obtained from the American Type Culture Collection and cultured in Iscove’s modified Dulbecco’s medium (Sigma-Aldrich) supplemented with 20% fetal bovine serum (FBS) (Sigma-Aldrich).
(§2) The apoptotic activity of the compounds was determined using the phycoerythrin (PE) annexin V/dead cell apoptosis kit with Sytox green for flow cytometry (Invitrogen, Carlsbad, CA). Cells were grown in 12-well flat-bottom microtiter plates at an initial density 2 × 10^5 cells in 1.5-ml medium per well for 24 h. Following the incubation period, spent medium was replaced with fresh medium containing the desired concentration of the test compound and incubated for another 18 h. After trypsinization, cells were harvested by centrifuging at 250 × g for 4 min, and the cell pellet was suspended in 100 μl of binding buffer supplemented with 1 μl Sytox and 5 μl annexin V, followed by incubation at 37°C for 15 min. Samples were then diluted by adding 400-μl binding buffer, and flow cytometry was performed using a FACScalibur flow cytometer (Becton, Dickinson, Franklin Lakes, NJ), measuring the fluorescence emissions at 530 nm and 575 nm.

[2] = test system: HL60 cells; details: HL60, positive control, 2 mM hydrogen peroxide, 4 h
Procedure: as §1, §2

[3] = test system: J774A.1 cells; details: positive control, 2 mM hydrogen peroxide, 4 h
Procedure: as §1, §2

OO [Medium/H2O2, hydrogen peroxide, reference compound]
Early apoptosis (%) [1]: 4.9% | Late apoptosis/necrosis (%) [1]: 21.9* % | Live cells (%) [1]: 56.6% | Early apoptosis (%) [2]: 12.3% | Late apoptosis/necrosis (%) [2]: 31.4% | Live cells (%) [2]: 52.7% | Early apoptosis (%) [3]: 1.3% | Late apoptosis/necrosis (%) [3]: 34.7% | Live cells (%) [3]: 41.9%
